Measurements taken from patent US20100209536A1, “Methods and Kits for Use in the Treatment and Prevention of Diseases or Conditions of the Immune System or Infectious Diseases” (The Brigham and Women's Hospital, Inc., priority 2006, published 2010).

Tests used:
[1] = tested on: respiratory infection in children at age 3 years; test: Project Viva vitamin D study: risk of respiratory infection in children at age 3 years; assay type: in vivo, human
From the text: (§1) Project Viva is a prospective cohort study examining prenatal factors in relation to outcomes of pregnancy and child health. Participants were recruited at eight obstetric offices of Harvard Vanguard Medical Associates, a large multispecialty urban/suburban group practice in eastern Massachusetts. At the 1st study visit, directly after the person's initial clinical prenatal visit, we obtained informed consent, administered a brief interview, and provided a take-home self-administered questionnaire. At the 2nd study visit, at 26 to 28 weeks gestation, we again administered a brief interview and provided a questionnaire. Project Viva participants gave birth at Brigham and Women's Hospital or Beth Israel Deaconess Medical Center in Boston. Within 3 days after delivery, we interviewed the mother. We reassessed mothers and children at 6 months, 1 year, and annually thereafter. At the time of this analysis, age 3 visits were almost complete.
(§2) We obtained data directly from participants and from medical records, as detailed previously (Yunginger et al., Am. Rev. Respir. Dis. 146:888-894, 1992). Briefly, maternal diet assessment at both the 1st and 2nd visits was based on a validated 166-item semi-quantitative food frequency questionnaire (FFQ) (Fawzi et al., Ann. Epidemiol. 14:754-762, 2004). We slightly modified the FFQ for use in pregnancy from the FFQ used in the Nurses' Health Study and other cohort studies (Willett, New York: Oxford University Press; 1998). Modifications for use in pregnancy included changing the time referent, beverage section, and vitamin and supplement assessment. The FFQ used at the 1st visit reflected intakes in the 1st trimester and the time referent was “during this pregnancy.” In addition, we collected information on beverage intake during 2 specified time periods: before and after the participant learned that they were pregnant. To assess vitamin and supplement intake during the 1st trimester, we administered a separate interview that assessed dose, duration, and brand/type of multivitamin, prescribed prenatal vitamin, and supplements. The FFQ used at the 2nd visit (26 to 28 weeks of gestation) reflected intakes during the 2nd trimester; the time referent was “during the past 3 months.” The 2nd trimester instrument was the same as the 1st trimester, except that we assessed use of vitamins/supplements as part of the self-completed FFQ and we collected beverage information during the one time period.
(§3) To calculate intake of nutrients, we used the Harvard nutrient composition database (Hu, N. Engl. J. Med. 337:1491-1499, 1997). We calculated vitamin D intake for each FFQ, and the mean of these two values was the assigned exposure for each woman during pregnancy (Rifas-Shiman, Paediatr. Perinat. Epidemiol. 20:35-42, 2006). We used a similar approach for retinol and calcium intakes. For analyses based on foods rather than nutrients, we focused on milk (servings/day), the major contributor to vitamin D intake in the diet. We also examined foods with possible effects on asthma risk (McKeever et al., Am. J. Respir. Crit. Care Med. 170:725-729, 2004; Devereux et al., J. Allergy Clin. Immunol. 115:1109-1117, 2005): fruits and vegetables (servings/day) and fish (servings/week).
(§4) Finally, we examined two related outcomes: respiratory infection and eczema. We defined “respiratory infection” as a positive response to at least one of three questions on any of the annual questionnaires: “since your child was born (was 12 months old, was 2 years old), have you been told by a health professional that he/she has: (a) bronchiolitis; (b) pneumonia; (c) bronchitis, croup, or any other respiratory infection?” We defined “eczema” as a positive response to one question on any of the annual questionnaires: “have you ever been told by a health care professional that your child has eczema?”
(§5) To assess the associations between vitamin D intake and clinical outcomes, we used multiple logistic regression models. […]

any wheeze in children = test: Project Viva vitamin D study: risk of any wheeze during the first three years of life; assay type: in vivo, human; details: n=416 cases; adjusted for the 12 factors in model A
From the text: as §1, with “We reassessed mothers and children at 6 months, 1 year, and annually thereafter. At the time of this analysis, age 3 visits were almost complete.” left out
We obtained data directly from participants and from medical records, as detailed previously (Yunginger et al., Am. Rev. Respir. Dis. 146:888-894, 1992). Briefly, maternal diet assessment at both the 1st and 2nd visits was based on a validated 166-item semi-quantitative food frequency questionnaire (FFQ) (Fawzi et al., Ann. Epidemiol. 14:754-762, 2004). […] To assess vitamin and supplement intake during the 1st trimester, we administered a separate interview that assessed dose, duration, and brand/type of multivitamin, prescribed prenatal vitamin, and supplements. […]

[2] = tested on: cellular response to dexamethasone; details: steroid-resistant asthmatics; cited from earlier work
[3] = tested on: recurrent wheeze in children at age 3 years; test: Project Viva vitamin D study: maternal intake during pregnancy and risk of recurrent wheeze in children at age 3 years; assay type: in vivo, human
From the text: as §1
Exclusion criteria included multiple gestation (e.g., twins), inability to answer questions in English, plans to move out of the area before delivery, and gestational age greater than 22 completed weeks at initial prenatal clinical appointment. Additional details of recruitment and follow-up have been presented elsewhere (Yunginger et al., Am. Rev. Respir. Dis. 146:888-894, 1992). Among 2,128 delivered infants in Project Viva, we excluded 228 because of missing first and second trimester diet assessment data and an additional 37 with a gestation of less than 34 completed weeks. […] Of the remaining 1,495 infants, 76 were lost to follow-up and 225 have not yet exited the 3-year time-window, leaving an analysis sample of 1,194 participants. Human subjects committees of Harvard Pilgrim Health Care, Brigham and. Women's Hospital, and Beth Israel Deaconess Medical Center approved the study protocols.
as §2
as §3, with “We also examined foods with possible effects on asthma risk (McKeever et al., Am. J. Respir. Crit. Care Med. 170:725-729, 2004; Devereux et al., J. Allergy Clin. Immunol. 115:1109-1117, 2005): fruits and vegetables (servings/day) and fish (servings/week).” left out

[4] = tested on: eczema in children at age 3 years; test: Project Viva vitamin D study: risk of eczema in children at age 3 years; assay type: in vivo, human
From the text: as §1, §2, §3, §4, §5

[5] = quartile 2 (median 513 IU) vs quartile 1
[6] = quartile 3 (median 603 IU) vs quartile 1
[7] = quartile 4 (median 724 IU) vs quartile 1

vitamin D
Effect of maternal intake on risk of respiratory infections ([1]; children at age 3 years): did not affect risk
Odds ratio, respiratory infection, Multivariate model 1 [1, 5]: 0.73
Odds ratio, respiratory infection, Multivariate model 2 [1, 5]: 0.74
Odds ratio, respiratory infection, Unadjusted [1, 5]: 0.68
Odds ratio, respiratory infection, Multivariate model 1 [1, 6]: 1.01
Odds ratio, respiratory infection, Multivariate model 2 [1, 6]: 1.01
Odds ratio, respiratory infection, Unadjusted [1, 6]: 0.92
Odds ratio, respiratory infection, Multivariate model 1 [1, 7]: 0.74
Odds ratio, respiratory infection, Multivariate model 2 [1, 7]: 0.75
Odds ratio, respiratory infection, Unadjusted [1, 7]: 0.68
Odds ratio, any wheeze, per 100 IU increase of maternal intake (any wheeze in children): 0.89
Effect of supplementation on cellular response to dexamethasone [2]: improve the cellular response to dexamethasone
Multivariate OR per 100 IU/day increase, recurrent wheeze ([3]; LMP in other seasons): 0.85
Multivariate OR per 100 IU/day increase, recurrent wheeze ([3]; LMP in winter): 0.62
Odds ratio, recurrent wheeze, model 2 with further control for child vitamin D intake from foods at 2 years ([3]; maternal intake quartiles, Table 2 model 2 plus child vitamin D intake from foods at 2 years): 0.34
Odds ratio, recurrent wheeze, model 2 with further control for child use of a vitamin supplement at age 6 months ([3]; maternal intake quartiles, Table 2 model 2 plus child vitamin supplement at 6 months): 0.39
Odds ratio, recurrent wheeze with 4+ wheezing episodes, per 100 IU increase ([3]; n=86 cases, adjusted for the 12 factors in model A): 0.79
Odds ratio, recurrent wheeze and a doctor-diagnosis of asthma, per 100 IU increase ([3]; n=132 cases, adjusted for the 12 factors in model A): 0.82
Odds ratio, recurrent wheeze, further adjustment for race/ethnicity and college education ([3]; per 100 IU/day maternal intake): 0.81
Odds ratio, recurrent wheeze, per 100 IU/day, Food Only, Unadjusted ([3]; per 100 IU/day maternal intake, Food Only): 0.81
Odds ratio, recurrent wheeze, per 100 IU/day, Supplement Only, Unadjusted ([3]; per 100 IU/day maternal intake, Supplement Only): 0.82
Odds ratio, recurrent wheeze, per 100 IU/day, Total intake, Unadjusted ([3]; per 100 IU/day maternal intake, Total): 0.81
Odds ratio, recurrent wheeze, per 100 IU/day, Food Only, Multivariate model A ([3]; per 100 IU/day, Food Only, adjusted for 12 factors): 0.79
Odds ratio, recurrent wheeze, per 100 IU/day, Food Only, Multivariate model B ([3]; per 100 IU/day, Food Only, model A plus vitamin D from supplements): 0.80
Odds ratio, recurrent wheeze, per 100 IU/day, Supplement Only, Multivariate model A ([3]; per 100 IU/day, Supplement Only, adjusted for 12 factors): 0.82
Odds ratio, recurrent wheeze, per 100 IU/day, Supplement Only, Multivariate model B ([3]; per 100 IU/day, Supplement Only, model A plus vitamin D from foods): 0.82
Odds ratio, recurrent wheeze, per 100 IU/day, Total, Multivariate model A ([3]; per 100 IU/day, Total, adjusted for 12 factors): 0.80
Odds ratio, recurrent wheeze, per 100 IU/day, Total, Multivariate model C ([3]; per 100 IU/day, Total, model A plus maternal intake of calcium): 0.79
Odds ratio, recurrent wheeze, per 100 IU/day, Total, Multivariate model D ([3]; per 100 IU/day, Total, model A plus maternal intake of retinol): 0.81
Odds ratio, recurrent wheeze, Multivariate model 1 [3, 5]: 0.49
Odds ratio, recurrent wheeze, Multivariate model 2 [3, 5]: 0.47
Odds ratio, recurrent wheeze, Unadjusted ([3]; quartile 2 of maternal intake (median 513 IU, range 446-562) vs quartile 1, n = 1,194 pairs): 0.55
Odds ratio, recurrent wheeze, Multivariate model 1 [3, 6]: 0.56
Odds ratio, recurrent wheeze, Multivariate model 2 [3, 6]: 0.54
Odds ratio, recurrent wheeze, Unadjusted ([3]; quartile 3 (median 603 IU, range 563-658) vs quartile 1): 0.55
Odds ratio, recurrent wheeze, Multivariate model 1 [3, 7]: 0.41
Odds ratio, recurrent wheeze, Multivariate model 2 [3, 7]: 0.38
Odds ratio, recurrent wheeze, Unadjusted ([3]; quartile 4 (median 724 IU, range 659-1,145) vs quartile 1 (median 356 IU)): 0.39
Effect of maternal intake on risk of early childhood eczema ([4]; children at age 3 years): did not affect risk
Odds ratio, eczema, Multivariate model 1 [4, 5]: 0.88
Odds ratio, eczema, Multivariate model 2 [4, 5]: 0.86
Odds ratio, eczema, Unadjusted [4, 5]: 1.00
Odds ratio, eczema, Multivariate model 1 [4, 6]: 0.94
Odds ratio, eczema, Multivariate model 2 [4, 6]: 0.93
Odds ratio, eczema, Unadjusted [4, 6]: 1.03
Odds ratio, eczema, Multivariate model 1 [4, 7]: 0.95
Odds ratio, eczema, Multivariate model 2 [4, 7]: 0.92
Odds ratio, eczema, Unadjusted [4, 7]: 1.10
